The source of these data is patent US11180487B2, “Substituted cyanoindoline derivatives as NIK inhibitors” (Janssen Pharmaceutica NV, priority 2016, dated 2021).

The test system of series [1] is KMS12-BM (NIK WT) multiple myeloma cells. Nature of the series: Antiproliferative activity on KMS12-BM multiple myeloma cells (CellTiter-Glo, 96 hr), Biological Assay C. It counts as cell-based, human. To be noted: averaged values, read-out: KMS-12 Proliferation inhibition (IC50 (nM)). Summed up: (§1)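 JJN-3 and KMS12-BM cells in RPMI 1640 with 10% FCS were plated at 15000–20000 cells/well and treated 96 h with a 9-point 1:3 dilution series (0.3% DMSO). Viability read by CellTiter-Glo luminescence, blank (time-zero cells) subtracted, expressed as % of untreated control; duplicate wells.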

Series [2] deals with recombinant human NF-kappaB-inducing kinase (NIK/MAP3K14) (Homo sapiens, UniProt Q99558). The experiment in a line: Inhibition of auto-phosphorylation of recombinant human NIK/MAP3K14 activity (AlphaScreen), Biological Assay A. It counts as biochemical. To be noted: averaged values over all measurements on all batches. A digest of the protocol: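 GST-tagged enzyme (0.2 nM) incubated with compound and 25 μM ATP in 50 mM Tris pH 7.5, 5 mM MgCl2, 1 mM EGTA, 1 mM DTT, 0.1 mM Na3VO4, 1% DMSO, 1 h at 25 °C. Stopped with anti-phospho-IKK Ser176/180 antibody; AlphaScreen bead read, blank-subtracted, IC50 from sigmoidal fit.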

For series [3], the system named is P-IKKα levels in L363 (NIK translocated multiple myeloma) cells. The experiment in a line: Effect of compounds on P-IKKα levels in L363 cells (Mesoscale sandwich immuno-assay), Biological Assay B. It counts as cell-based, human. Particulars: 2 hr treatment, averaged values, read-out: Inhibition of pIKKα_L-363 (IC50 (nM)). Summed up:
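L363 NIK-translocated myeloma cells primed 24 h with 1 μg/ml BAFF (stock), then treated 2 h with compound (1% DMSO, 8-point 1:3 dilutions). Lysate P-IKKα measured by Mesoscale sandwich immunoassay; MG132+BAFF controls, blank with 10 μM ADS125117 subtracted. IC50 from sigmoidal fit of % inhibition versus log concentration.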

Series [4] relates to JJN-3 (NIK translocated) multiple myeloma cells. The experiment in a line: Antiproliferative activity on JJN-3 multiple myeloma cells (CellTiter-Glo, 96 hr), Biological Assay C. It counts as cell-based, human. Particulars: JJN-3 (NIK translocated) cells, averaged values, read-out: JJN-3 Proliferation inhibition (IC50 (nM)). A digest of the protocol: as §1

Where two headings read alike, the source gives them in different places.

Sequence of recombinant human NF-kappaB-inducing kinase (NIK/MAP3K14) (Q99558 whole entry): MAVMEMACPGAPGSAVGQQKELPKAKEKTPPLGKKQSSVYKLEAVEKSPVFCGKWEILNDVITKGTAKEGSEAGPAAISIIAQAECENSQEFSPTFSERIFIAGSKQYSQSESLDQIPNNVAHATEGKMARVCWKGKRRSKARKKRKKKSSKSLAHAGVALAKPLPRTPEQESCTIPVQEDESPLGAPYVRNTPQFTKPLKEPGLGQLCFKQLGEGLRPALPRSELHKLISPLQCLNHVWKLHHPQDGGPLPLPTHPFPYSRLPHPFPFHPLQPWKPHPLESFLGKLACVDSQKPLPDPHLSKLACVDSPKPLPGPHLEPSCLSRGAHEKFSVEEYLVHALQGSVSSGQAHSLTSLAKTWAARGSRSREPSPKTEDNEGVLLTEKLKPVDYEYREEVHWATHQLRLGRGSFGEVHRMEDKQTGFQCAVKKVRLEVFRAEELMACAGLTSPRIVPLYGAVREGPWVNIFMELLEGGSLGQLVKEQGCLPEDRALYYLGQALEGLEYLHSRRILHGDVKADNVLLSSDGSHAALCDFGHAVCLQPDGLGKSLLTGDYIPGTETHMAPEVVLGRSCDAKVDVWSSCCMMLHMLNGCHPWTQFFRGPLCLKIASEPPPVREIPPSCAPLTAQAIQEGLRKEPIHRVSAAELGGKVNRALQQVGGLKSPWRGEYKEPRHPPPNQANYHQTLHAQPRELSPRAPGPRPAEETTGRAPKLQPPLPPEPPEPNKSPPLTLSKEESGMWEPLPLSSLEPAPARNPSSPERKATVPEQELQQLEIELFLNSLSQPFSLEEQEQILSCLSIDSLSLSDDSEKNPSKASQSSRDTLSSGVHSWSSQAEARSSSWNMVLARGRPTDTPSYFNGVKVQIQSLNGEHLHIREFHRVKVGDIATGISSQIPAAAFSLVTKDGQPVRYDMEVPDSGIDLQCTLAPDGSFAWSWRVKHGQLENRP

`COc1cc(S(C)(=O)=O)ccc1Nc1nccc(-c2cc(C#N)c3c(c2)[C@@](C)(CO)CN3)n1` [Compound 73] showed a melting point of 201 °C. The IC50 in series [1] (Homo sapiens, KMS-12-BM, 96 h) was greater than 10000 nM. Besides, the IC50 in series [2] came out at 2.2 nM. Also, the IC50 in series [3] (Homo sapiens, L-363, 2 h) came to 1.4 nM. Besides, in series [4] (Homo sapiens, JJN-3, 96 h), the IC50 is 68 nM.
For `COCCCc1ccc(C#N)cc1Nc1nccc(-c2cc(C#N)c3c(c2)[C@@](C)(CO)CN3)n1` [Compound 74] the same measures were 124 °C, roughly 1150 nM, 4 nM, 16.2 nM and 182 nM.
For `CN1CCC(Oc2ccc(Cl)cc2Nc2nccc(-c3cc(C#N)c4c(c3)C(C)(C)CN4)n2)CC1` [Compound 80] the same measures were 192 °C, 1000 nM, 15.2 nM, 209 nM and 124 nM.
In the case of `COc1cc(N2CCC(O)CC2)c(Cl)cc1Nc1nccc(-c2cc(C#N)c3c(c2)C(C)(C)CN3)n1` [Compound 105], the melting point is greater than 250 °C. Moreover, the IC50 in series [1] (Homo sapiens, KMS-12-BM, 96 h) was roughly 6610 nM. Besides, the IC50 in series [2] stood at 28.5 nM. The IC50 in series [3] (Homo sapiens, L-363, 2 h) was found to be 22.9 nM. For the same compound, in series [4] (Homo sapiens, JJN-3, 96 h), the IC50 is 118 nM.
In the same order, the values of `COC(=O)c1cc(OC)c(Nc2nccc(-c3cc(C#N)c4c(c3)C(C)(C)CN4)n2)cc1Cl` [Compound 106] are 208 °C, greater than 10000 nM, 63.1 nM, 123 nM and 1620 nM.
For `COc1cc(C(=O)NC2CCOCC2)c(Cl)cc1Nc1nccc(-c2cc(C#N)c3c(c2)C(C)(C)CN3)n1` [Compound 108] the same measures were greater than 260 °C, greater than 3980 nM, 11 nM, 3.8 nM and 39 nM.
In the same order, the values of `CC(=O)OC[C@@]1(C)CNc2c(C#N)cc(-c3ccnc(Nc4cc(C#N)ccc4C)n3)cc21` [Compound 125] are 213 °C, roughly 6920 nM, 13.8 nM, 3.6 nM and 182 nM.
Turning to `Cc1ccc(C#N)cc1Nc1nccc(-c2cc(C#N)c3c(c2)[C@@](C)(COC(=O)C(C)C)CN3)n1` [Compound 126], the melting point came to 200 °C. Further, the IC50 in series [1] (Homo sapiens, KMS-12-BM, 96 h) is roughly 8910 nM. Further, the IC50 in series [2] came out at 112 nM. Further, in series [3] (Homo sapiens, L-363, 2 h), the IC50 is roughly 6.9 nM. Besides, the IC50 in series [4] (Homo sapiens, JJN-3, 96 h) is 151 nM.
For `COCCOc1ccc(C#N)cc1Nc1nccc(-c2cc(C#N)c3c(c2)[C@@](C)(COC(C)=O)CN3)n1` [Compound 127] the same measures were 158 °C, greater than 10000 nM, 129 nM, 11.5 nM and 570 nM.
Consider `CC(=O)OC[C@@]1(C)CNc2c(C#N)cc(-c3ccnc(Nc4cc(C#N)ccc4OCC4CC4)n3)cc21` [Compound 128], for which the melting point was 156 °C. In addition, the IC50 in series [1] (Homo sapiens, KMS-12-BM, 96 h) was greater than 10000 nM. The IC50 in series [2] amounted to 251 nM. The IC50 in series [3] (Homo sapiens, L-363, 2 h) worked out at 20.9 nM. The IC50 in series [4] (Homo sapiens, JJN-3, 96 h) came to 407 nM.
Take `Cc1ccc(C#N)cc1Nc1nccc(-c2cc(C#N)c3c(c2)[C@@](C)(CO)CN3)n1` [Compound 129]: the melting point turned out to be 190 °C. The IC50 in series [1] is roughly 7940 nM. In addition, the IC50 in series [2] worked out at 1.4 nM. In series [3], the IC50 was 3.2 nM. In series [4], the IC50 is 330 nM.
For `Cc1ccc(C#N)cc1Nc1nccc(-c2cc(C#N)c3c(c2)[C@@](C)(CO)CN3)n1` [Compound 130], the melting point amounted to 264 °C. Besides, in series [1], the IC50 stood at 9770 nM. The IC50 in series [2] was 1.5 nM. The IC50 in series [3] came to 2.2 nM. Also, the IC50 in series [4] came to 167 nM.
In the same order, the values of `Cc1ccc(C#N)cc1Nc1nccc(-c2cc(C#N)c3c(c2)[C@@](C)(CO)CN3)n1` [Compound 131] are 174 °C, greater than 10000 nM, 1.3 nM, 4.7 nM and 324 nM.
In the same order, the values of `Cc1ccc(C#N)cc1Nc1nccc(-c2cc(C#N)c3c(c2)[C@@](C)(CO)CN3)n1` [Compound 132] are 234 °C, 5010 nM, 1.3 nM, 2.2 nM and 128 nM.
Compound `Cc1ccc(C#N)cc1Nc1nccc(-c2cc(C#N)c3c(c2)[C@@](C)(CO)CN3)n1` [Compound 133] yielded a melting point of 262 °C. Also, the IC50 in series [1] was found to be 4360 nM. In addition, the IC50 in series [2] came to 0.7 nM. Further, the IC50 in series [3] is 3 nM. Moreover, the IC50 in series [4] stood at 170 nM.
For `[2H]C([2H])(O)[C@@]1(C)CNc2c(C#N)cc(-c3ccnc(Nc4cc(C#N)ccc4C)n3)cc21` [Compound 136], the melting point is 219 °C. The IC50 in series [1] (Homo sapiens, KMS-12-BM, 96 h) is greater than 10000 nM. In addition, the IC50 in series [2] is 1.7 nM. In addition, the IC50 in series [3] (Homo sapiens, L-363, 2 h) was less than 0.66 nM. Further, in series [4] (Homo sapiens, JJN-3, 96 h), the IC50 stood at 269 nM.
For `Cc1ccc(C#N)cc1Nc1nccc(-c2cc(C#N)c3c(c2)[C@@](C)(COC(=O)CN)CN3)n1` [Compound 137] the same measures were 290 °C, roughly 10000 nM, 6 nM, 2.7 nM and 545 nM.
For `Cc1ccc(C#N)cc1Nc1nccc(-c2cc(C#N)c3c(c2)[C@@](C)(COC(=O)[C@@H](N)C(C)C)CN3)n1` [Compound 139] the same measures were 202 °C, roughly 8910 nM, 56.2 nM, 26.9 nM and 302 nM.
Compound `Cc1ccc(C#N)cc1Nc1nccc(-c2cc(C#N)c3c(c2)[C@@](C)(COC(=O)[C@H](N)Cc2ccccc2)CN3)n1` [Compound 140] had a melting point of 180 °C. In addition, the IC50 in series [1] (Homo sapiens, KMS-12-BM, 96 h) was roughly 9120 nM. In addition, the IC50 in series [2] is 51.3 nM. Further, the IC50 in series [3] (Homo sapiens, L-363, 2 h) worked out at 56.2 nM. The IC50 in series [4] (Homo sapiens, JJN-3, 96 h) was found to be 550 nM.
In the case of `Cc1ccc(C#N)cc1Nc1nccc(-c2cc(C#N)c3c(c2)[C@@](C)(COC(=O)[C@@H](C)N)CN3)n1` [Compound 141], the melting point was found to be 212 °C. Besides, in series [1] (Homo sapiens, KMS-12-BM, 96 h), the IC50 is greater than 10000 nM. Moreover, the IC50 in series [2] was 8.7 nM. In addition, the IC50 in series [3] (Homo sapiens, L-363, 2 h) was 2.2 nM. For the same compound, the IC50 in series [4] (Homo sapiens, JJN-3, 96 h) turned out to be 33 nM.
`Cc1ccc(C#N)cc1Nc1nccc(-c2cc(C#N)c3c(c2)[C@@](C)(COC(=O)CC(=O)O)CN3)n1` [Compound 142a] registered a melting point of 138 °C. For the same compound, in series [1] (Homo sapiens, KMS-12-BM, 96 h), the IC50 was greater than 10000 nM. Moreover, in series [2], the IC50 turned out to be 12 nM. For the same compound, the IC50 in series [3] is 2.2 nM. Moreover, the IC50 in series [4] stood at 3630 nM.
`Cc1ccc(C#N)cc1Nc1nccc(-c2cc(C#N)c3c(c2)[C@@](C)(COC(=O)CC(=O)O)CN3)n1` [Compound 142b]: the melting point is 214 °C. The IC50 in series [1] was greater than 10000 nM. Moreover, the IC50 in series [2] stood at 17 nM. Also, the IC50 in series [3] is roughly 58.9 nM. Moreover, the IC50 in series [4] was 977 nM.
Compound `Cc1ccc(C#N)cc1Nc1nccc(-c2cc(C#N)c3c(c2)[C@@](C)(COS(=O)(=O)O)CN3)n1` [Compound 143] displayed a melting point greater than 270 °C. Besides, the IC50 in series [1] (Homo sapiens, KMS-12-BM, 96 h) was greater than 10000 nM. The IC50 in series [2] was found to be 6.5 nM. Further, the IC50 in series [3] (Homo sapiens, L-363, 2 h) came out at 12.3 nM. Besides, the IC50 in series [4] (Homo sapiens, JJN-3, 96 h) was 200 nM.
For `Cc1ccc(C#N)cc1Nc1nccc(-c2cc(C#N)c3c(c2)[C@@](C)(COC(=O)CN2CCOCC2)CN3)n1` [Compound 146] the same measures were 186 °C, greater than 10000 nM, 19.9 nM, 5.2 nM and 78 nM.
In the same order, the values of `CNC(=O)c1cc(Nc2nccc(-c3cc(C#N)c4c(c3)[C@@](C)(CO)CN4)n2)c(C)cc1F` [Compound 155] are 218 °C, greater than 10000 nM, 3.5 nM, 7.7 nM and 467 nM.
For `CNC(=O)c1cc(Nc2nccc(-c3cc(C#N)c4c(c3)[C@@](C)(CO)CN4)n2)c(OC2CC2)cc1F` [Compound 156] the same measures were 206 °C, greater than 10000 nM, 4.8 nM, 7.8 nM and 251 nM.
For `CNC(=O)c1cc(Nc2nccc(-c3cc(C#N)c4c(c3)[C@@](C)(CO)CN4)n2)c(F)cc1OC1CC1` [Compound 157], the melting point turned out to be 235 °C. In addition, the IC50 in series [1] (Homo sapiens, KMS-12-BM, 96 h) is roughly 7590 nM. Besides, the IC50 in series [2] is 4.9 nM. Also, the IC50 in series [3] (Homo sapiens, L-363, 2 h) is 12.9 nM. Moreover, in series [4] (Homo sapiens, JJN-3, 96 h), the IC50 worked out at 178 nM.
